Experimental data reported in ChEMBL document CHEMBL4732163 (Eur J Med Chem, 2021).

Legend:
dengue virus type 2 = test: Antiviral activity against DENV-2 New Guinea C infected in human Huh-7 cells preincubated for 1 hr followed by viral infection and measured after 48 hrs by Renilla luciferase reporter gene assay
[1] = Cytotoxicity against DENV-2 New Guinea C infected human Huh-7 cells assessed as reduction in cell viability preincubated for 1 hr followed by viral infection and measured after 48 hrs by Alamar blue assay; format: cell-based; settings: Huh-7 cells infected with DENV-2 New Guinea C, time 49 hrs
[2] = target: T1, Cyclin-G-associated kinase (Homo sapiens, UniProt O14976); test: Inhibition of tracer 222 binding to GAK (unknown origin) incubated for 1 hr by Lanthascreen TR-FRET assay
T1 sequence (O14976 whole entry): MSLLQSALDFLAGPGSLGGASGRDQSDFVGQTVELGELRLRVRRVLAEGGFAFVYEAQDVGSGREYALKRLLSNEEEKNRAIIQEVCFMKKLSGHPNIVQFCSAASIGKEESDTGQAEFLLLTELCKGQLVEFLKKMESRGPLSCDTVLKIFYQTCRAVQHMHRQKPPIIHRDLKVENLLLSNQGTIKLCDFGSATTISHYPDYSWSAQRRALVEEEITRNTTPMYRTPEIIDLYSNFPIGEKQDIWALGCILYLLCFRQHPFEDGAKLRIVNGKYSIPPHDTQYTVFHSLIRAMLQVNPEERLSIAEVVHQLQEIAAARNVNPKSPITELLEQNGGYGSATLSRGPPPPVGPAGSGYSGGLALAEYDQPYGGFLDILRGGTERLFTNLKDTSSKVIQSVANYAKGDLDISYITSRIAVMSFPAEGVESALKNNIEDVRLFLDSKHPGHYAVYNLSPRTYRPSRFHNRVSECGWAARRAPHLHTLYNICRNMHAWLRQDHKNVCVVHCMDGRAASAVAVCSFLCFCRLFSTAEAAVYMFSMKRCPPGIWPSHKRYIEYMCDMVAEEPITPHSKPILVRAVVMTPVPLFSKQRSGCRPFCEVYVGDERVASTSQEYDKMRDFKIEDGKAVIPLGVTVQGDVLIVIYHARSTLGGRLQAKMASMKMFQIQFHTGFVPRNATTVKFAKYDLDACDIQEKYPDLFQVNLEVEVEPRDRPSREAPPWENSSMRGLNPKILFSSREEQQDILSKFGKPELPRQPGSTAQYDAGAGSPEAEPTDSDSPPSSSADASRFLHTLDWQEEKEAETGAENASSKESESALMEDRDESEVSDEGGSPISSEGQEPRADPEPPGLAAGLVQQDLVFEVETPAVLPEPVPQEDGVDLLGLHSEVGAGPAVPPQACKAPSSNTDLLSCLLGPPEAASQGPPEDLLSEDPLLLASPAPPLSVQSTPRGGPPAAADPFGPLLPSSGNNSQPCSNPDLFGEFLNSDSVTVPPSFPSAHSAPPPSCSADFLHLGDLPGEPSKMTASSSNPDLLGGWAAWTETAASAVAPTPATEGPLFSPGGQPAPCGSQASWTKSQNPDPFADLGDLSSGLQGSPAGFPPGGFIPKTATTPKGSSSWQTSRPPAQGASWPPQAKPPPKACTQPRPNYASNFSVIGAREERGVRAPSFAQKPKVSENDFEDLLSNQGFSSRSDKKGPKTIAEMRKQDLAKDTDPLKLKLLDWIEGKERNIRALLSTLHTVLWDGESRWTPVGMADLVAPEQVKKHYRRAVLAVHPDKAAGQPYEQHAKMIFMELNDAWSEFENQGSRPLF

[3] = target: Cyclin-dependent kinase 7 (Homo sapiens) (UniProt P50613); test: Inhibition of wild-type human full length CDK7 (M1 to L344 residues) expressed in mammalian expression system assessed as residual activity at 10 uM by Kinomescan method relative to control
[4] = target: Receptor-type tyrosine-protein kinase FLT3 (Homo sapiens) (UniProt P36888); test: Inhibition of wild-type human partial length FLT3 (V592 to Y969 residues) expressed in bacterial expression system assessed as residual activity at 10 uM by Kinomescan method relative to control
[5] = target: Mast/stem cell growth factor receptor Kit (Homo sapiens) (UniProt P10721); test: Inhibition of wild-type human partial length KIT (I571 to D952 residues) expressed in bacterial expression system assessed as residual activity at 10 uM by Kinomescan method relative to control
[6] = target: MAP kinase-interacting serine/threonine-protein kinase 2 (Homo sapiens) (UniProt Q9HBH9); test: Inhibition of wild-type human partial length MKNK2 (G63 to S388 residues) expressed in mammalian expression system assessed as residual activity at 10 uM by Kinomescan method relative to control
[7] = target: Platelet-derived growth factor receptor alpha (Homo sapiens) (UniProt P16234); test: Inhibition of wild-type human partial length PDGFRA (V575 to D1002 residues) expressed in mammalian expression system assessed as residual activity at 10 uM by Kinomescan method relative to control
[8] = target: Platelet-derived growth factor receptor beta (Homo sapiens) (UniProt P09619); test: Inhibition of wild-type human partial length PDGFRB (V582 to Y1009 residues) expressed in bacterial expression system assessed as residual activity at 10 uM by Kinomescan method relative to control
[9] = target: High affinity nerve growth factor receptor (Homo sapiens) (UniProt P04629); test: Inhibition of wild-type human partial length TRKA (G475 to G790 residues) expressed in mammalian expression system assessed as residual activity at 10 uM by Kinomescan method relative to control
Sequence of High affinity nerve growth factor receptor (Homo sapiens) (P04629 33-796 limits assumed): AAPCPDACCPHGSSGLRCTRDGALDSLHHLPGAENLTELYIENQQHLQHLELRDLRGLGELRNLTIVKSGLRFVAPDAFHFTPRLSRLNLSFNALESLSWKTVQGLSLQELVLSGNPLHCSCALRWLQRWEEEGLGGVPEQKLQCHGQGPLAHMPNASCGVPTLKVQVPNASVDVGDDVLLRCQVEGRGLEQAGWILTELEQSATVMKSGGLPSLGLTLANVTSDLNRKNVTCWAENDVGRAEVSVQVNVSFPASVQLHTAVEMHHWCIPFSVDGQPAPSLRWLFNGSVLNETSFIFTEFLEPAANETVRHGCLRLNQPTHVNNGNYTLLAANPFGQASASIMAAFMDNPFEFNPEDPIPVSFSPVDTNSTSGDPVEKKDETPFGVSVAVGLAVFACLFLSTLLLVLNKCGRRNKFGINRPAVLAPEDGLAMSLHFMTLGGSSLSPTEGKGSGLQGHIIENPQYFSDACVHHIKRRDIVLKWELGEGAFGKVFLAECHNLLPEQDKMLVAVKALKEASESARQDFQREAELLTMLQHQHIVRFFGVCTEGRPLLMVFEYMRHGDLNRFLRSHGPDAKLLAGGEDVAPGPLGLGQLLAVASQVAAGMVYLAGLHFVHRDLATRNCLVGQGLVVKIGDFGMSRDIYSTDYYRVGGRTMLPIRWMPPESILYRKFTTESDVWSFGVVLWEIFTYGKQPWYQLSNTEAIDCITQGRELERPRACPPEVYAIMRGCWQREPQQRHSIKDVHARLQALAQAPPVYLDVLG

Sequence of Cyclin-dependent kinase 7 (Homo sapiens) (P50613 whole entry, the tested form may be a part): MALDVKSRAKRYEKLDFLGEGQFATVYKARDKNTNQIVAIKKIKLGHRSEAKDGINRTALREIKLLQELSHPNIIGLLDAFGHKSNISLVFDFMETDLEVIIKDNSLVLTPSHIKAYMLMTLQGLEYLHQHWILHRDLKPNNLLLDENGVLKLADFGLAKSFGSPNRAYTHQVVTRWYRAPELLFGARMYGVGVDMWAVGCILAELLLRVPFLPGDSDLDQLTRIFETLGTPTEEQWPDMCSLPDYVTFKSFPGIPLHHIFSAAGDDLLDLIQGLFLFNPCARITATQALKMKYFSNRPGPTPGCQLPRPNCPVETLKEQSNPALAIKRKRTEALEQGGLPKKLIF
Sequence of MAP kinase-interacting serine/threonine-protein kinase 2 (Homo sapiens) (Q9HBH9 whole entry, looked up, the tested form may be a part): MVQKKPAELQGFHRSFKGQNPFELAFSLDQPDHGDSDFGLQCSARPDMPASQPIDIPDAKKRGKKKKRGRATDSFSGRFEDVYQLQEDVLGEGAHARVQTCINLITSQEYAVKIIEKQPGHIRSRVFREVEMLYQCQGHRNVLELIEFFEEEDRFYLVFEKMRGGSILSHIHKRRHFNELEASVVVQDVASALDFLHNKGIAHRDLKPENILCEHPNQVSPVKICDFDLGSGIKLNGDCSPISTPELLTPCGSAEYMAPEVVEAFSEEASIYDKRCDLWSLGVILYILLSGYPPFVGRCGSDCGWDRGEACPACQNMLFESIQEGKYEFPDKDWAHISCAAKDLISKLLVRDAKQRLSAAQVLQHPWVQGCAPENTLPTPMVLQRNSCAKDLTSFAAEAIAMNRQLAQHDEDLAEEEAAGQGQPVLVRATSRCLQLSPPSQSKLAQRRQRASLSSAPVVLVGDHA
Sequence of Platelet-derived growth factor receptor alpha (Homo sapiens) (P16234 whole entry, the tested form may be a part): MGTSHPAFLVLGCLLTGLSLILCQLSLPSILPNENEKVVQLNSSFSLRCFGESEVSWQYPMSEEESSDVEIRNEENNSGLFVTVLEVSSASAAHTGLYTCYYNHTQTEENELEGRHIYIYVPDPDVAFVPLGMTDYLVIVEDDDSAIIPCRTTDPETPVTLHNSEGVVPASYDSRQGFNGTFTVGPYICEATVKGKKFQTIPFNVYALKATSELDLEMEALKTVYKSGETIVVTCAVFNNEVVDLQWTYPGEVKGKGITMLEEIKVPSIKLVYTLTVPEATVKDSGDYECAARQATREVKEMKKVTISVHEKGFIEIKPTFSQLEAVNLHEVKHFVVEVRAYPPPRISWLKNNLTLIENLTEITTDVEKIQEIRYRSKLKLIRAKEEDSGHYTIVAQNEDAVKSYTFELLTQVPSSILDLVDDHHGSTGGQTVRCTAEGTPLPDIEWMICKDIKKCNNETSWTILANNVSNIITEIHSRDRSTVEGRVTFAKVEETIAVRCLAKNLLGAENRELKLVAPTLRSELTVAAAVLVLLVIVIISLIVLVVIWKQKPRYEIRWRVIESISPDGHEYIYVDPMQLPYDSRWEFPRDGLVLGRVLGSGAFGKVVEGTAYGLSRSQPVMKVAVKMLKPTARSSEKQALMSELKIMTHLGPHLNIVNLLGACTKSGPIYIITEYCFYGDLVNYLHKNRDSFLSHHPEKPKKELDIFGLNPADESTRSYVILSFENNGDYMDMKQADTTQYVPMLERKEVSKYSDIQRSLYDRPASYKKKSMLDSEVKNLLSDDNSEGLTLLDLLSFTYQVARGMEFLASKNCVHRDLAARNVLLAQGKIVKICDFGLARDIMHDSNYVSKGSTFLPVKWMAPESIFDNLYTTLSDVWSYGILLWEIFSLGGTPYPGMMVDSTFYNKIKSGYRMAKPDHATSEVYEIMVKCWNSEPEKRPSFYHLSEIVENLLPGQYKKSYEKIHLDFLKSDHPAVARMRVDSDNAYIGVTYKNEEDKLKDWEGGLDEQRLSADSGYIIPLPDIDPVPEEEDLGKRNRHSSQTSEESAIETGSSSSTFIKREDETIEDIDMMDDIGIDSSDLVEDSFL
Sequence of Receptor-type tyrosine-protein kinase FLT3 (Homo sapiens) (P36888 whole entry, the tested form may be a part): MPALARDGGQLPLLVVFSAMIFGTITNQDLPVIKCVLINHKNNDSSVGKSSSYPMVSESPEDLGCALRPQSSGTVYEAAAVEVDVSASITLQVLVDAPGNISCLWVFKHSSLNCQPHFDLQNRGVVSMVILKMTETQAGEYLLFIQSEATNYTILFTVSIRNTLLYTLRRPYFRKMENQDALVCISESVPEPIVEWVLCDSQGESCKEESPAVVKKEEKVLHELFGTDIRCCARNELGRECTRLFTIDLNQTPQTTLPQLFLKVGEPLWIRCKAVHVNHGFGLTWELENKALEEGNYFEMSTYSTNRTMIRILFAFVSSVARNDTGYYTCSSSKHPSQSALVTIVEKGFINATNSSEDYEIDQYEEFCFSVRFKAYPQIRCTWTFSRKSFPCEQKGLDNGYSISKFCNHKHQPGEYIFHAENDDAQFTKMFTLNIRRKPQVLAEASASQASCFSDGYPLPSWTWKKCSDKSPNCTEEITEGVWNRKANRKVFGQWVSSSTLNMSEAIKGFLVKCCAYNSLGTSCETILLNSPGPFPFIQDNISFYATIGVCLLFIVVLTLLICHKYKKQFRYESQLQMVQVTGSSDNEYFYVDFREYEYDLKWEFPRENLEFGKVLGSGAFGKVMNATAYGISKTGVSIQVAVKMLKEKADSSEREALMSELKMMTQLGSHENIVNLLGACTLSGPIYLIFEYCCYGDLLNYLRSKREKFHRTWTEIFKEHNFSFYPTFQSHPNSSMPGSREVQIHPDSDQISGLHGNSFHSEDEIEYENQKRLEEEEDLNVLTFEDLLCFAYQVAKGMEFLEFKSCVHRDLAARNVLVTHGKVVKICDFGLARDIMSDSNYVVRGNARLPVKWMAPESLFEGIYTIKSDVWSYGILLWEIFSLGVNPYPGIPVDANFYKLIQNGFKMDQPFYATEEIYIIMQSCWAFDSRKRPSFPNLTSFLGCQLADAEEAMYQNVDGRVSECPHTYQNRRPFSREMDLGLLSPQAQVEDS
Sequence of Platelet-derived growth factor receptor beta (Homo sapiens) (P09619 whole entry, the tested form may be a part): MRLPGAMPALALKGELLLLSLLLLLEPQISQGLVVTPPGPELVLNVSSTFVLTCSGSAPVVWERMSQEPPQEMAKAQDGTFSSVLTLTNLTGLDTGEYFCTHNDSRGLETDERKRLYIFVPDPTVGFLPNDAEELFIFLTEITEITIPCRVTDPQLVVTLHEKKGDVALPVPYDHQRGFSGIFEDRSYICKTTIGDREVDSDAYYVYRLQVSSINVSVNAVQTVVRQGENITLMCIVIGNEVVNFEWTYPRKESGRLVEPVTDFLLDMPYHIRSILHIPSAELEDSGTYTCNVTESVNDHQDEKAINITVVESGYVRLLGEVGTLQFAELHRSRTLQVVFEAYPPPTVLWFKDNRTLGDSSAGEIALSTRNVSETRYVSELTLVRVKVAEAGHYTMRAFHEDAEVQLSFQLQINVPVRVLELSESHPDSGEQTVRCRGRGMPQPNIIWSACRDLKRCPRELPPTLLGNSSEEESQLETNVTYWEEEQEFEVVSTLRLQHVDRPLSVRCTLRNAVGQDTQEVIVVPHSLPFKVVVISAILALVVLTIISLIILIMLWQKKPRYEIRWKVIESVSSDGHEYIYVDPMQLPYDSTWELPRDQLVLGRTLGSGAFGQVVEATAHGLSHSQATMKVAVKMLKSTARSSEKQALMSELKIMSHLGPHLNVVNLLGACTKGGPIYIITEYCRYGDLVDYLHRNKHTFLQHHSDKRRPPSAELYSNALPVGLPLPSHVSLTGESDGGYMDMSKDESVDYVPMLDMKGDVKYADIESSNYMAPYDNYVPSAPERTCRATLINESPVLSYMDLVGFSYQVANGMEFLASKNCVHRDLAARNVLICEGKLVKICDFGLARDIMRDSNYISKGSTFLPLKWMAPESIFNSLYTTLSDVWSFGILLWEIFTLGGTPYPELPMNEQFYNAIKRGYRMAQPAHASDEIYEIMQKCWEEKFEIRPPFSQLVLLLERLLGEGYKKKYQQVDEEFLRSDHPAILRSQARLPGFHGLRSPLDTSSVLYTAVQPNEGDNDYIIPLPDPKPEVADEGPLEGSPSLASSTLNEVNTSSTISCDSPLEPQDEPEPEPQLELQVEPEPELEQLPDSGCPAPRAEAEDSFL

SMILES	EC50 (dengue virus type 2) [µM]	CC50 at 48 h [1] [µM]	IC50 [2] [µM]	also measured
C#Cc1cccc(Nc2ncnc3cc(OCCOC)c(OCCOC)cc23)c1 [ERLOTINIB]	12	> 20	–	–
COc1cc(-c2cnc3c(N4CCC[C@H](CNC(=O)C5CC5)C4)snc3c2)ccc1N	7.5	> 20	0.013	Activity [3]: < 10%; Activity [4]: < 10%; Activity [5]: < 10%; Activity [6]: < 10%; Activity [7]: < 10%; Activity [8]: < 10%; Activity [9]: < 10%
CCC(=O)Nc1ccc(-c2snc3cc(-c4ccc(N)c(OC)c4)cnc23)cc1	–	–	> 1.1	–
COc1cc(-c2cnc3c(N4CCC[C@@H](CNC(=O)C5CC5)C4)snc3c2)ccc1N	–	–	0.36	–
COc1cc(-c2cnc3c(-c4cccc(NC(=O)C5CCCC5)c4)snc3c2)ccc1N	1.8	13	–	–
COc1cc(-c2cnc3c(-c4cccc(NC(=O)N5CCOCC5)c4)snc3c2)ccc1N	7.9	> 20	–	–
COc1cc(-c2cnc3c(N4CCCC(CNC(=O)c5ccccc5)C4)snc3c2)ccc1N (stereo not drawn)	3.9	> 20	–	–
COc1cc(-c2cnc3c(N4CCOCC4)snc3c2)ccc1N	–	–	0.051	–
COc1cc(-c2cnc3c(N4C[C@@H](C)O[C@@H](C)C4)snc3c2)ccc1N	0.96	> 20	–	–
COc1cc(-c2cnc3c(N4CCCC(CNC(=O)C5CC5)C4)snc3c2)ccc1N (stereo not drawn)	4	> 20	0.014	–
COc1cc(-c2cnc3c(-c4cccc(NC(=O)C5CC5)c4)snc3c2)ccc1N	3.6	15	–	–
COc1cc(-c2cnc3c(-c4cccc(NC(=O)N5CCCC5)c4)snc3c2)ccc1N	6	> 20	–	–
COc1cc(-c2cnc3c(N4CCCC(CNC(=O)C5CCCC5)C4)snc3c2)ccc1N (stereo not drawn)	2.6	> 20	–	–
COc1cc(-c2cnc3c(N4CCCC(CNC(=O)N5CCCC5)C4)snc3c2)ccc1N (stereo not drawn)	4.1	> 20	–	–
CCC(=O)Nc1cccc(-c2snc3cc(-c4ccc(N)c(OC)c4)cnc23)c1	1.9	9.9	–	–
COc1cc(-c2cnc3c(-c4cccc(NC(=O)C(C)C)c4)snc3c2)ccc1N	3.8	14	–	–
